Data on one compound can be found in patent US10935552B2, “Aie luminogens for visualization and treatment of cancer” (THE HONG KONG UNIVERSITY OF SCIENCE AND TECHNOLOGY, priority 2015, dated 2021).

Molecules are shown by their SMILES.

One data set concerns MDCK-II cells. In words: Cell imaging under fluorescent microscope, MDCK-II normal cells. Type of data set: cell-based, Canine. The conditions noted are these: MDCK-II stained alone, 200 nM, 10 mins. How it is done: Cell culture: HeLa cells were cultured in the MEM containing 10% FBS and 1% antibiotics (100 units/mL penicillin and 100 µg/mL streptomycin) in a 5% CO2 humidity incubator at 37° C. COS-7, MDA-MB-231, MCF-7, and MDCK-II cells were culture in the DMEM containing 10% FBS and antibiotics (100 units/mL penicillin and 100 µg/mL streptomycin) in a 5% CO2 humidity incubator at 37° C.
Cell imaging: two different kind of cells were grown overnight on a 35 mm petri dish with a cover slip. The live cells were incubated with 200 nM of TPE-IQ-2O for 1, 5, 10, and 20 mins. In a typical experiment, 2 μL of a 10 mM stock solution of TPE-IQ-2O in DMSO was diluted to 2 mL with cell culture medium, followed by further dilution to desired concentration. The cells were imaged under a fluorescent microscope (BX41 Microscope) using the same excitation and emission filters: excitation filter=400-440 nm, dichroic mirror=455 nm, and emission filter=465 nm long pass.
Two different kinds of cells were grown overnight on a 35 mm petri dish with a cover slip. The live cells were incubated with 200 nM of TPE-IQ-2O for 10 mins. […] Condition: 200 nM 10 mins (Filter: both close; Channel 5; EX: 400-440 nm; Exposure time: bright field: 1000 ms Fluorescence: 1000 ms.

A further data set relates to LX2 cells. Kind of data set: Cell imaging, LX2 normal cells. The following applies: LX2, 200 nM, 20 and 10 mins. Type of data set: cell-based, human. How it is done: The LX2 cells were grown overnight on a 35 mm petri dish with a cover slip. The live cells were incubated with 200 nM of TPE-IQ-2O for 20 and 10 mins.
(§1) HepG2 cells (human hepatocarcinoma cell line), PC-9 cells (human lung adenocarcinoma cell line), Hela cells (human cervical carcinoma cell line), and LX2 cells (normal cell, human hepatic stellate cell line) were stained with 200 nM DPA-IQ for 10 min. Images were taken under the same equipment settings. Scale bar: 30 μm. Excitation wavelength: 400-440 nm.

For another data set, the system named is HepG2 cells. In words: Cell imaging, HepG2 cells. Type of data set: cell-based, human. The following applies: HepG2, 200 nM, 20 and 10 mins. As for the experimental part:
The PC-9, HepG2, and HCC827 cells were grown overnight on a 35 mm petri dish with a cover slip. The live cells were incubated with 200 nM of TPE-IQ-2O for 20 and 10 mins. In all the experiments, the cancer cells are fluorescent in solely staining.
as §1

In data set [1] the test system is COS-7 cells. In words: Cell imaging under fluorescent microscope, COS-7 normal cells. The following applies: COS-7 stained alone, 200 nM, 1-20 min. Type of data set: cell-based, simian. As for the experimental part:
Cell culture: HeLa cells were cultured in the MEM containing 10% FBS and 1% antibiotics (100 units/mL penicillin and 100 µg/mL streptomycin) in a 5% CO2 humidity incubator at 37° C. COS-7, MDA-MB-231, MCF-7, and MDCK-II cells were culture in the DMEM containing 10% FBS and antibiotics (100 units/mL penicillin and 100 µg/mL streptomycin) in a 5% CO2 humidity incubator at 37° C. Cell imaging: two different kind of cells were grown overnight on a 35 mm petri dish with a cover slip. The live cells were incubated with 200 nM of TPE-IQ-2O for 1, 5, 10, and 20 mins. […] Condition: 200 nM (Filter: both close; Channel 5; EX: 400-440 nm; Exposure time: bright field: 1000 ms Fluorescence: 1000 ms. Two different kinds of cells were grown overnight on a 35 mm petri dish with a cover slip. The live cells were incubated with 200 nM of TPE-IQ-2O for 20, 10, and 5 mins. The MCF-7 cells were stained by TPE-IQ-2O; the COS-7 cells were stained by TPE-IQ-2O; the MCF-7 cells and COS-7 cells were co-cultured and stained together by TPE-IQ-2O. Condition: 200 nM (Filter: both close; Channel 5; EX: 400-440 nm; Exposure time: bright field: 1000 ms Fluorescence: 1000 ms. Two different kinds of cells were grown overnight on a 35 mm petri dish with a cover slip. […] Condition: 200 nM (Filter: both close; Channel 5; EX: 400-440 nm; Exposure time: bright field: 1000 ms Fluorescence: 1000 ms.

Data set [2] has as its system COS-7 cells. In words: LDH cytotoxicity assay, COS-7 cells. The following applies: COS-7, with or without white light irradiation. It counts as cell-based, simian. As for the experimental part: The HeLa and COS-7 cells were seeded in 96-well plate for 24 hrs. Then a different concentration of TPE-IQ-2O was added into each well. After 30 mins TPE-IQ-2O treatment in the dark, the dye was removed. Half of the cells were treated with white light irradiation for 90 mins and the rest of cells were kept in the dark. After another 24 hrs of incubation, 10 μL of 10× lysis buffer bromide was added to untreated cells as Maximum LDH Activity, while 10 μL ultrapure water was added to other wells. After incubation at 37° C. 5% CO2 for 45 mins, 50 μL of each well sample medium was transferred to a new 96-well plate, followed by addition of 50 μL reaction mixture. 50 μL stop solution were added into each well after 30 mins incubation protected from light. Then the absorbance was achieved by plate reader.

A further data set relates to ROS. In words: ROS generation under white light with H2DCF-DA indicator. The following applies: white light irradiation; dye 10 mM, H2DCF-DA 5 mM, ex 488 nm. As for the experimental part: Fluorescence change of TPE-IQ-2O, H2DCF-DA (ROS indicator) and the mixture with different irradiation time of white light. […] Dye (TPE-IQ-2O): 10 mM; H2DCF-DA: 5 mM. Excitation wavelength: 488 nm.

Turning to `CCC[n+]1cc2ccc(C(=C(c3ccc(OC)cc3)c3ccc(OC)cc3)c3ccccc3)cc2c(-c2ccccc2)c1-c1ccccc1` [TPE-IQ-2O, 6-(2,2-bis(4-methoxyphenyl)-1-phenylvinyl)-3,4-diphenyl-2-propylisoquinolin-2-ium], the “Fluorescence of stained cells” value in the data set on MDCK-II cells is “not stained”; with LX2 cells, “no obvious fluorescence”; in the data set with HepG2 cells it was “fluorescent”; with COS-7 cells [1], “not stained”. The LDH cytotoxicity entry in the data set on COS-7 cells [2] is on record as “no obvious cytotoxicity”. Also, the “ROS generation (H2DCF-DA fluorescence)” value in the data set on ROS is “continuous ROS generation”.
